# Measurements taken from US20160340683A1, “NANOCARRIER BASED PLANT TRANSFECTION AND TRANSDUCTION” (HER MAJESTY THE QUEEN IN RIGHT OF CANADA AS REPRESENTED BY …, priority 2007, published 2016).
# fluorescein = fluorescein label at the N-terminus
# Experiments:
# [1] = tested on: isolated microspores of Triticale (variety Sunray); assay: CPP delivery of GUS enzyme into isolated microspores, GUS staining; assay type: cell-based; conditions: GUS enzyme cargo:CPP 1:4, 1 hour at 37° C., three repeats
# Protocol: Triticale line Sunray grown in a growth cabinet with a photoperiod of 19 h day (intensity 300 μE m-2 s-1), and temperature 18-15° C. (day-night) with a relative humidity at about 70% was used as the donor plant material. The plants were fertilized every 2 weeks (20-20-20, 200 ppm) and treated with 2.5 ml I-1 Tilt™ (propiconazole, Syngenta) during the tillering stage and Intercept™ (0.004 g per litre of soil, Imidacloprid, Bayer) once sufficient root development was established. The first 10 tillers from each pot were harvested when the spike was at 3-4 cm, depending on the crop, from emergence from the boot. These tillers (to be used for microspore isolation) were subjected to pre-treatment in a refrigerator (4° C.) for 21 days with their bases in distilled water and their heads wrapped in aluminum foil. After 21±3 days of pre-treatment, the spikes were excised from their tillers and after an evaluation of their general appearance, only the most homogenous spikes were used. After confirming microspores at mid to bi-nucleate stage from a median floret, using acetocarmine staining, the tillers were processed for extraction.
# Awns were removed with scissors in a laminar flow hood. Eight-fourteen spikes were used for microspore isolation. They were sterilized with 10% bleach (5.25% sodium hypochlorite) for 3 min followed by rinsing in sterile double distilled water four times of 1 min each with constant agitation. Outer glumes were removed and florets from all the spikes were aseptically dissected and transferred to a sterile and refrigerated 110 ml Warring blender cup (VWR international, #58983-093) containing 50 ml filter sterilized extraction buffer at 4° C. Florets were then blended twice for 7 s at low speed (18000 rpm). The slurry was then poured through a 1 mm sieve followed by pouring through a 100 μm sterile mesh (VWR International, #CA21008-950) into two 50 ml centrifuge tubes (25 ml each). The blender cup was rinsed with 50 ml extraction buffer at 4° C. and poured through the 100 μm mesh and was added to the first aliquot in the 50 ml tubes. The cells were then pelleted by centrifugation (100×g for 5 min at 4° C.) using a swinging bucket rotor. After pouring off the supernatant, the microspore-containing pellets were pooled together in one 50 ml tube and re-suspended in 50 ml cold extraction buffer. The cells were pelleted again with centrifugation (100×g for 5 min at 4° C.), the supernatant poured off and the pellet was transferred to a 15 ml tube. After re-suspending the pellet in CIMC Wash Buffer supplemented with 10 microM SS-31 peptide, it was subjected to wash and centrifugation using the above conditions. The supernatant was removed and the pellet was re-suspended in CIMC Wash buffer and centrifugation was repeated as above. The pellet was then suspended in 7 mL of 20% maltose at 4° C., layered with 1 mL of CIMC wash buffer and was centrifuged at 100 g for 13 min at 4° C. A band of microspores formed at the interface was collected in a new 15 ml tube. The cells were diluted with CIMC wash solution and subsequently collected by centrifugation at 150 g for 5 min. The supernatant was removed and the cells were finally suspended in a total volume of 1.4 ml of appropriate solution. After counting the cells using a haemocytometer, aliquots of 100,000 cells in 200 μl volume were prepared in 2 ml microcentrifuge tubes to be ready for transduction.
# Peptide stock solutions were made in water at 1 μg/μl concentration. CPP (Nanocarrier) and GUS enzyme (cargo) were first prepared in separate microcentrifuge tubes. A total of 4 μg of CPP was prepared in sterile water to a final volume of 100 μl. Similarly, 1 μg of GUS enzyme was added to sterile water to a final volume of 100 μl. The contents of the two tubes were mixed together giving a ratio of 1:4 protein cargo:CPP. The complex was incubated for 30 min at room temperature (RT). Chariot (PAP1) protein delivering reagent was used as a positive control in the experiments. […]
# [2] = tested on: scutellum and somatic embryos of triticale; assay: CPP delivery of mCherry protein, confocal microscopy; assay type: cell-based; conditions: mCherry 1 μM with 60 μM CPP, overnight at RT
# Source text: The fluorescent mCherry protein was chosen as the protein, while scutellum (dissected out of immature caryopses) and isolated microspore culture-derived somatic embryos of triticale were used as choice of tissue. Both scutellum and somatic embryos are amenable to tissue culture and can undergo somatic embryogenesis to regenerate green plants providing a direct means to obtain modified plants following a biocompatible CPP induced transduction. Scutellum is representative of a diploid tissue while microspore culture derived somatic embryos is a haploid tissue.
# The protein:CPP complex was prepared by individually mixing mCherry protein (1 μM) with 60 μM of the 3 CPPs. Both scutellum and somatic embryos of triticale were treated with these different complex formulations overnight at RT. […] The red fluorescent signal was detected by confocal microscopy within both scutellum and somatic embryo cells.
# immature embryos = assay: Translocation of fluoresceinated CPPs in zygotic embryos, fluorescence microscopy; assay type: cell-based, Triticale cv AC Alta; conditions: for Fluorescence under fluorescence microscope, overall comparison: mature and immature embryos, with or without permeabilization
# Protocol: The embryos were isolated from spikes two weeks post-anthesis (scutellum diameter 1-2 mm). The immature seeds were surface sterilized with 70% ethanol for 30 s followed by treatment with 10% hypochlorite (Chlorex) and a drop of Tween 20, 3 min. Four washings of 1 min each were given with sterile water. The embryos were hand dissected under sterile conditions. Isolated embryos were placed on GEM medium (Eudes et al, 2003) for 24 h in dark at room temperature prior to CPP translocation studies.
# Isolated and sterilized embryos (20-25) were imbibed in total volume of 420 μl permeabilization buffer (15 mM sodium chloride, 1.5 mM sodium citrate, pH 7.1) containing cellular permeabilization agent toluene/ethanol (1:4) in 1:20 ratio with permeabilization buffer. To this 2.1 μl of 1 mM fluoresceinated CPP was added to give a final concentration of 5 μM. In negative controls, the embryos were treated with FITC-dextran sulphate or M-Tat. The embryos were incubated in the permeabilization mix for 1 h in dark at room temperature, followed by two washings with permeabilization buffer. The embryos were then treated with trypsin:EDTA (0.25% solution, Sigma-Aldrich) in 1:2 ratio with permeabilization buffer for 5 min at room temperature to remove free peptide molecules. Embryos were washed two times with permeabilization buffer and subjected either for fluorescence microscopy or spectrofluorimetric analysis.
Substance,Average Transduction Efficiency [1] [%],also measured
RRRIAGSALVGAPPQARRRRRRR [CPP52],0,
RKEKKRIKQRKAFIMAEKKKRK [CPP13],0,
RRRPRPARLRHRLHRPINLKFERK [CPP15],9.23,
RRRRRRREKLAEATRGGGEKR [CPP35],0,
RRRRRRRRHEQRRRRRKRGRGR [CPP2],18.7,
RRRRWRHRCATKTAATTLRRRRRRRRGRR [CPP29],22.25,
RKQPGRKPGVRTARPKRSKKSQLKK [CPP58],0,
RKRKRGKGIGSGRGRGRGRASGSEKGRGSGKGKAK [CPP44],11.27,
RARRRSTARRRKRRTPTRSGR [CPP32],1.26,
KRKPKGGDAAEGSEKRKPKKKK [CPP16],0,
RRRRRRRRHLRR [CPP34],47.13,"Delivery of mCherry inside the cells, red fluorescent signal [2]: able to interact noncovalently with mCherry, subsequently delivering it inside the cells"
KEKKKERRGVRDKERDK [CPP53],0,
RLKRRRRRRRKVSRR [CPP33],15.67,
RVRSSRRAAEGRRRRRRREKR [CPP37],1.94,
RCRRRRRRRETTSR [CPP67],0,
KSKANRHRHHRRHRQQKPTTTRRRRR [CPP64],5.40,
KRKKSGKKKKIGRFLSRLVGAEKRR [CPP9],5.79,
RKKKGKRKEERER [CPP55],0,
RRHRQQKPTTTRRRRR [CPP65],0,
KAKKNRSHIGKLKMTKTSGRKRSR [CPP21],0,
RRRRKKRGRKGRDKEERRDR [CPP42],1.20,
KRRRSWRRRRSRTRQRRRRSRRRRRRRR [CPP41],21.17,
Dextran Sulphate,,"Uptake seen by fluorescence microscopy (FIG. 1) (immature embryos; in the presence of cellular permeabilizing agent (toluene)): some fluorescence; Fluorescence under fluorescence microscope, overall comparison (immature embryos): none or very weak fluorescence; Uptake seen by fluorescence microscopy (FIG. 1) (immature embryos; without cellular permeabilizing agent): did not demonstrate any significant uptake"

Substance,Average Transduction Efficiency [1] [%],also measured
RRARRRTRRGGGEAGRRQERRRRRRRR [CPP31],0,
RRDGVPRRRRRRRHMGRQR [CPP27],2.06,
RKRKEENTGRRRRRRRERKRR [CPP22],1.94,
RRKNDKPKTGGEKKSTKDAPESSKKKNRK [CPP61],0,
RAGVDGRGRRRRRRRR [CPP50],1.31,
RRSLLSRRIRRRLRRRPKPRRRRRRR [CPP46],9.31,
RRRRRRRRRRVRFDSRR [CPP7],16.63,
RRSGRRQRRRRRRRRKR [CPP66],23.38,
RKRKRGKGIGSGRGRGRGR [CPP43],0,
RRRGRRRRRRRRQRQQRR [CPP6],15.07,
RRRKGSSYRRRRRRRRR [CPP20],0,
RRIRRRLRRRPKPRRRRRRR [CPP17],46.54,"Delivery of mCherry inside the cells, red fluorescent signal [2]: able to interact noncovalently with mCherry, subsequently delivering it inside the cells"
RRRGRRRRRRRRQRQQRRQEGNRRR [CPP5],5.88,
RRLTTGLSFYSKPYRRSRGPRHRTEKRKRIR [CPP56],5.47,
MRRRRRRRRR [CPP48],1.09,
RRRRRRRRRRKRGGRR [CPP14],0,
RRRRKKRGRKGRDKEERRDRRRRRRR [CPP40],11.74,
RRPHSRHRRRRRRR [CPP10],0,
RRRRARGKRCWLRRRRRR [CPP49],11.89,
RRRRKKRGRKGRDKEERRDRRRRRRR [CPP11],16.61,
RRLRCRREGKEKR [CPP60],0,
RRRRRITRVRRRRRRR [CPP39],13.15,
KKKKKKKRPTALTPTPSLLRRRRRRR [CPP26],0,

Substance,Average Transduction Efficiency [1] [%],also measured
RRFRRTAPRAAGEARGLRRLRKSR [CPP57],5.77,
RSSRRAAEGRRRRRRRREKR [CPP36],0,
RRGWRWRSAPRGGSRRRRRRRR [CPP12],5.25,
MALERPWKRRRRRRR [CPP47],0,
RRRRCTRRRTRSRRRPRR [CPP3],57.63,"Delivery of mCherry inside the cells, red fluorescent signal [2]: able to interact noncovalently with mCherry, subsequently delivering it inside the cells"
FI-LLIILRRRIRKQAHAHSK-amide (fluorescein-LLIILRRRIRKQAHAHSK-NH2) [pVEC],,"Fluorescence under fluorescence microscope, overall comparison (immature embryos): least uptake"
MDERRRRRRRLTATRKVAAARRRRKRR [CPP54],6.21,
RRRRRRRGRDARRR [CPP8],2.78,
RSGRRDRRRKKGSAR [CPP59],0,
RRSKRDVRGRQRRRRRRRLFPRR [CPP1],21.07,
KKKGKGKKKKQGK [CPP4],0,
RRWRRRRSRRRRRRRRR [CPP18],0,
RRRGIKPNAKRRRRRRRR [CPP23],0,
RTSKRRVRRRRRRR [CPP38],0,
RAWYRFRHLVRGKWRERLRRKFK [CPP62],9.78,
KGHRFRSKFRHYRFRFR [CPP45],0,
KTAATTLRRRRRRRRGRR [CPP28],5.61,
RRRRRRRAGERRAREDMGRRKFR [CPP19],0,
RLRRLLLPLRRRRRLRQRRR [CPP25],8.7,
RPLPLPLPLPRGPRRRRRRR [CPP30],0,
RRRVGRRAPRRRRR [CPP51],0,
RRRRRRRRHGRR [CPP24],18.77,
RRRQERRER [CPP63],0,
